Data from ChEMBL document CHEMBL1156829 (Proc Natl Acad Sci U S A, 2008).

Columns and labels:
[1] = NOVARTIS: Cytotoxicity against human hepatocellular carcinoma cell line (Huh7); assay type: toxicity, cell-based, Huh-7; conditions: Huh7 cells (hepatocellular carcinoma cell line)
Plasmodium falciparum [2] = test: NOVARTIS: Inhibition of Plasmodium falciparum 3D7 (drug-susceptible) proliferation in erythrocyte-based infection assay; assay type: functional, organism-based; conditions: Plasmodium falciparum, 3D7
Plasmodium falciparum [3] = test: NOVARTIS: Inhibition of Plasmodium falciparum W2 (drug-resistant) proliferation in erythrocyte-based infection assay; assay type: functional, organism-based; conditions: Plasmodium falciparum, W2; read-out: EC50

Row | Compound | CC50 [1] [nM] | EC50 (Plasmodium falciparum [2]) [nM] | EC50 (Plasmodium falciparum [3]) [nM]
1 | CC(Nc1cc(C)ccn1)=C(C#N)C#N | > 100000 | 549 | 795
2 | Cc1cc(N2CCCCC2)nc2ccc(NC(=O)c3cccc([N+](=O)[O-])c3)cc12 | > 100000 | 440 | 793
3 | O=C(c1ccc(F)cc1Cl)N1CCN(c2nc(-c3cccs3)ns2)CC1 | > 10000 | 351 | 78.9
4 | OC(CN1CCN(CC=Cc2ccccc2)CC1)Cn1c2ccc(Br)cc2c2cc(Br)ccc21 (centres undefined) | > 54100 | 1960 | 426
5 | O=C(NNC(=O)c1csnn1)c1ccc(C(F)(F)F)cc1 | > 100000 | 641 | 792
6 | CC(=O)c1ccc2c3c(onc13)-c1ccccc1C2=O | > 100000 | 2250 | 791
7 | COc1ccc2cc(C)c3nnc(SCC(=O)N4CCN(C(=O)c5ccco5)CC4)n3c2c1 | > 100000 | 1130 | 796
8 | CCN(CC)CCCN(Cc1cc2ccc(C)cc2[nH]c1=O)C(=S)Nc1cccc(Cl)c1 | 22100 | 700 | 176
9 | CCOC(=O)CCC(=O)Oc1ccccc1-c1nc2cc(C)ccn2c1NC(C)(C)CC(C)(C)C | > 10000 | 658 | 79.5
10 | CC(C)NCC(O)Cn1c2ccc(Cl)cc2c2cc(Cl)ccc21 (centres undefined) | 4870 | 183 | 38.9
11 | Cc1cc(Nc2ccc(C)c(C)c2)n2cnnc2n1 | > 73900 | 242 | 590
12 | CCOC(=O)C1CCCN(C(=O)c2c(C)oc3c2C(=O)c2ccccc2C3=O)C1 (centres undefined) | 20400 | 171 | 163
13 | O=c1c([N+](=O)[O-])cccn1Cc1ccc(F)cc1Cl | > 100000 | 358 | 783
14 | COc1cccc(-c2cncc(-c3cncc(OC)c3)n2)c1 | > 100000 | 701 | 803
15 | CCCCCCC(=O)Oc1ccccc1-c1nc2cc(C)ccn2c1NC(C)(C)CC(C)(C)C | > 10000 | 636 | 80.3
16 | CCNc1nc(NC(C)(C)C)nc(N2CCCC2)n1 | > 100000 | 1450 | 802
17 | COc1ccc(-n2c(CNc3cc(C(F)(F)F)ccc3Cl)nnc2SCc2ccccc2Cl)cc1 | > 100000 | 728 | 801
18 | O=C(Nc1cccc(-c2nc3ccccc3[nH]2)c1)c1cc(=O)c2ccccc2o1 | > 100000 | 397 | 786
19 | CC(=O)N(C1=C(N(C)C)C(=O)c2ccccc2C1=O)c1cccc(F)c1 | 1360 | 13.5 | 10.6
20 | Cc1ccc(NC(=O)ON=C2CCCC2)cc1 | 45700 | 408 | 362
21 | CCOC(=O)c1cnc2c(Cl)cccc2c1Nc1cccc(C(C)=O)c1 | > 100000 | 785 | 784
22 | COc1ccccc1-n1c(C(C)N2CCN(C(=O)c3cc([N+](=O)[O-])cc([N+](=O)[O-])c3)C(C)C2)nc2ccccc2c1=O (centres undefined) | > 10000 | > 603 | 79.6
23 | COC(=O)[C@@H]1C[C@H](NC(=O)c2[nH]c3ccc(Cl)cc3c2-c2ccccc2)CN1Cc1cc(OC)cc(OC)c1 | > 100000 | > 11500 | 786
24 | Cc1ccc(NC2=C(c3ccc(C(F)(F)F)cc3)C(=O)c3ccccc32)cc1F | > 100000 | 541 | 790
25 | Cc1ccc2ccc(C(Nc3ccccn3)c3ccc(Br)cc3)c(O)c2n1 (centres undefined) | > 100000 | 1220 | 800
26 | Cc1c2cnn(CC(=O)O)c(=O)c2c(C)n1Cc1cccc(Cl)c1 | > 100000 | > 12500 | 789
27 | N=c1c2c(n(Cc3ccccc3)c3c1CCC3)CCC2 | 41200 | 280 | 329
28 | Clc1nc(Nc2ccccc2)nc(N2CCCCC2)n1 | 48300 | > 12500 | 381
